Experimental findings from ChEMBL document CHEMBL1155342, “Design, synthesis and analgesic properties of novel conformationally-restricted N-acylhydrazones (NAH)” (2009) are described below.

Assay [1] concerns Mus musculus. As to the kind of experiment: Antinociceptive activity in mouse assessed as inhibition of acetic acid-induced abdominal constrictions at 100 umol/kg, po relative to untreated control. The format is functional. The conditions noted are these: Abdomen.
Assay [2] concerns Mus musculus. Briefly: Antinociceptive activity in po dosed mouse assessed as inhibition of acetic acid-induced abdominal constrictions. The format is functional. As to conditions: Abdomen.

By inhibition in vivo is commonly meant the drop in the measured response relative to a control, in per cent. As usually defined, the ED50 is the dose at which the effect has come halfway, by size or by number of responders. Take `COc1ccc(C(=O)N/N=C/c2ccccc2)cc1`: the inhibition in vivo at 100 µmol/kg in assay [1] was 54%. Also, the ED50 in assay [2] was 9.2 µmol/kg. In the case of `COc1ccc(-c2nnc3ccc(-c4ccccc4)nn23)cc1`, the inhibition in vivo at 100 µmol/kg in assay [1] worked out at 22%.

As for `COc1ccc(C(=O)N(C)/N=C/c2ccccc2)cc1`, the inhibition in vivo at 100 µmol/kg in assay [1] stood at 50%. Moreover, in assay [2], the ED50 stood at 5.9 µmol/kg. For `COC1=CC2N=CN=C(N/N=C/c3ccccc3)C2C=C1` (centres undefined), in assay [1], the inhibition in vivo at 100 µmol/kg amounted to 28%. Regarding `COc1ccc2c(=O)n(/N=C/c3ccccc3)cnc2c1`, in assay [1], the inhibition in vivo at 100 µmol/kg was 48%. The ED50 in assay [2] amounted to 4.2 µmol/kg. With `COc1ccc(C(=O)n2nc(-c3ccccc3)cc2C)cc1`, the inhibition in vivo at 100 µmol/kg in assay [1] turned out to be 50%. In addition, the ED50 in assay [2] amounted to 5.1 µmol/kg.

Consider `COc1ccc2c(c1)CC(c1ccccc1)=NNC2=O`, for which the inhibition in vivo at 100 µmol/kg in assay [1] was determined as 36%. Still for that read-out and setting: in the case of `CC(=O)Nc1ccc(O)cc1` [ACETAMINOPHEN] it was 36%. Consider `COc1ccc2c(c1)c(CC(=O)O)c(C)n2C(=O)c1ccc(Cl)cc1` [INDOMETHACIN], for which, in assay [1], the inhibition in vivo at 100 µmol/kg was determined as 42%. Further, the ED50 in assay [2] was determined as 56.2 µmol/kg.
